From US10689622B2, “Culture medium for proliferating stem cell, which contains sulfated compound” (AJINOMOTO CO., INC., priority 2012, dated 2020)

Legend:
[1] = Measurement of content level of sulfur in test compound (ICP); type: physicochemical
Summary of the method: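 Sulfur content was measured by ICP emission spectrometry on samples containing 0.01 wt % test compound. Values came from a calibration curve of sulfur standards at 0, 1, 10, 30 and 50 ppm.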

bFGF [2] = molecular target: T1, bFGF (Homo sapiens, UniProt P09038); experiment: Evaluation of bFGF stabilization in ReproFF2 medium (ELISA); type: biochemical; conditions: 37° C. for 7 days
T1 construct: purchased Lonza (via TAKARA BIO INC.) Ser. No. 00/190,632
Description: (§1) A commercially available measurement kit (human bFGF ELISA kit, ELH-bFGF-001, Ray Biotech) was used for quantification of bFGF in the medium. The measurement procedures followed the protocol attached to the kit. The bFGF concentration of the serum-free medium was calculated from the analytical curve (conversion formula) drawn from the absorbance of an analytical curve standard solution. The evaluation criteria of Tables 5-8 are as follows:
(§2) A test compound was dissolved in phosphate buffered saline, and diluted 10-fold with a serum-free medium to adjust the concentration shown in Table 4 (test sample). The test sample was left standing in a tightly sealed Falcon tube at 37° C. for 7 days, and the bFGF concentration was quantified by ELISA measurement. A phosphate buffered saline without a test compound was diluted 10-fold with Essential 8 medium or ReproFF2 medium, and left standing at 37° C. or 4° C. for 7 days, and used as a control.
as §1, with “Table 13” for “Tables 5-8”
as §2, with “Table 12” for “Table 4”

iPS cell 201B7 strain = experiment: iPS cell proliferation system (cell number); type: cell-based, human; conditions: matrigel, Essential-8 medium
Description: The cell proliferation effect of various test compounds was evaluated using artificial pluripotent stem cell (iPS cell). 201B7 strain purchased from iPS Academia Japan, Inc. was grown in a culture container coated with a basal lamina matrix (matrigel manufactured by Nippon Becton Dickinson Company, Ltd., or a fragment containing an active domain of laminin 511 purchased from OSAKA UNIVERSITY) (Becton, Dickinson and Company, Falcon culture petri dish or Falcon culture plate), contained in a feeder-free medium for human ES/iPS cell (ReproCELL Inc, ReproFF2).
In this medium were suspended iPS cells in colony state, and a 2.5- to 3.5-fold diluted amount of the original culture was plated on a 6-well culture plate coated with a basal lamina matrix (Nippon Becton Dickinson Company, Ltd., Falcon culture plate). […] After culturing for 6 to 12 days, the medium was removed, the cells were detached from the culture plate by a trypsin-EDTA (Sigma-Aldrich Ltd.) or TrypLE Select (Invitrogen) treatment and the cell number was measured. The cell number was measured by the method described in “Kaitei Saibou baiyou Nyuumon Note, page 77-83, 2010, YODOSHA CO., LTD.” which is incorporated herein by reference in its entirety.
When the cells were seeded in a dissociation state of the cells (single cell state), a test compound solution after filter sterilization was added to a medium containing Y-27632 (Nacalai Tesque) to a given concentration, and dispensed to a 6 well culture plate. Thereto were plated iPS cells suspended in a medium containing Y-27632 at 100,000 cells/well, and cultured for 6 to 8 days. On the next day of seeding, the medium was exchanged to a medium (without Y-27632) added with the test compound alone. When medium exchange was necessary, the medium was exchanged every 2 or 3 days. […] After culturing for 6 to 8 days, the cell number was measured by a method similar to that mentioned above.
When the evaluation was performed in Essential 8 medium (Invitrogen), which is a different feeder-free medium for iPS cell, iPS cells cultured in a medium obtained by adding human serum albumin (Sigma-Aldrich Co. LLC) to Essential 8 medium were used.

bFGF [3] = molecular target: T1, bFGF; experiment: Evaluation of bFGF stabilization in Essential 8 medium (ELISA); type: biochemical; conditions: 37° C. for 7 days
Summary of the method: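 Test compound in PBS diluted 10-fold into serum-free medium (Essential 8 or ReproFF2), held sealed at 37° C for 7 days; remaining bFGF quantified by ELISA against a standard curve. Controls: PBS without compound diluted into each medium, held 7 days at 37° C or 4° C.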

[4] = compound used in the Examples, stated in the description

T1 sequence (P09038 143-288): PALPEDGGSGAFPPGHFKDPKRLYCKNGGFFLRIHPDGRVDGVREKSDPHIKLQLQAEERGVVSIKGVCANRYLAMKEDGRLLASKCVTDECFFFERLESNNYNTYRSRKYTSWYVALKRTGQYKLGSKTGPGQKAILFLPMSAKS

sulfur content Found (inorganic analysis) ([1]; ICPS-8100, evaluation samples containing 0.01 wt % test compound): 17 wt %
sulfate group / sulfo group content level [1, 4]: 48.8 wt %
sulfur content (content level of sulfur) [1, 4]: 19.5 wt %
concentration showing a suppressive effect on a decrease in the bFGF concentration of the medium (bFGF [2]): not less than 250 pg/ml
concentration showing a suppressive effect on a decrease in the bFGF concentration of the medium (bFGF [3]): not less than 2.5 μg/ml
Structure (SMILES): O=S(=O)([O-])OC[C@H]1O[C@@](COS(=O)(=O)[O-])(O[C@H]2O[C@H](COS(=O)(=O)[O-])[C@@H](OS(=O)(=O)[O-])[C@H](OS(=O)(=O)[O-])[C@H]2OS(=O)(=O)[O-])[C@@H](OS(=O)(=O)[O-])[C@@H]1OS(=O)(=O)[O-].[K+].[K+].[K+].[K+].[K+].[K+].[K+].[K+] [sucrose 8SO3K]
bFGF concentration relative to that of 4° C. control (ELISA) (bFGF [2]; test compound 250 pg/ml): − (bFGF concentration was not less than 10% and less than 30% relative to that of 4 °C control)
bFGF concentration relative to that of 4° C. control (ELISA) (bFGF [2]; test compound 25 ng/ml): +++ (bFGF concentration was not less than 70% relative to that of 4 °C control)
bFGF concentration relative to that of 4° C. control (ELISA) (bFGF [2]; test compound 250 ng/ml): +++ (bFGF concentration was not less than 70% relative to that of 4 °C control)
bFGF concentration relative to that of 4° C. control (ELISA) (bFGF [2]; test compound 25 μg/ml): ++ (bFGF concentration was not less than 50% and less than 70% relative to that of 4 °C control)
bFGF concentration relative to that of 4° C. control (ELISA) (bFGF [2]; test compound 250 μg/ml): +++ (bFGF concentration was not less than 70% relative to that of 4 °C control)
number of cells relative to control (iPS cell 201B7 strain; test compound 25 ng/ml): ◯ (not less than 100%: ◯)
number of cells relative to control (iPS cell 201B7 strain; test compound 250 ng/ml): ◯ (not less than 100%: ◯)
bFGF concentration relative to that of 4° C. control (ELISA) (bFGF [3]; test compound 250 pg/ml): x (bFGF concentration was less than 10% relative to that of 4 °C control)
bFGF concentration relative to that of 4° C. control (ELISA) (bFGF [3]; test compound 25 ng/ml): x (bFGF concentration was less than 10% relative to that of 4 °C control)
bFGF concentration relative to that of 4° C. control (ELISA) (bFGF [3]; test compound 250 ng/ml): x (bFGF concentration was less than 10% relative to that of 4 °C control)
bFGF concentration relative to that of 4° C. control (ELISA) (bFGF [3]; test compound 25 μg/ml): +++ (bFGF concentration was not less than 70% relative to that of 4 °C control)
bFGF concentration relative to that of 4° C. control (ELISA) (bFGF [3]; test compound 250 μg/ml): +++ (bFGF concentration was not less than 70% relative to that of 4 °C control)
